From article PMC9338265, “Pathogen-selective killing by guanylate-binding proteins as a molecular mechanism leading to inflammasome signaling” (Nature Communications, 2022)
Non-standard residues stand in square brackets, D forms with d. No end group written: not given here. *: point of attachment. FITC = O=C1OC2(c3ccc(O)cc3Oc3cc(O)ccc32)c2ccc(NC(=S)*)cc21; Ahx = NCCCCCC(=O)O

Legend:
[1] = test system: E. coli; experiment: Bacterial viability assay (CFU); type: cell-based, Escherichia coli; conditions: 6 h
[2] = test system: F. novicida; type: cell-based, Francisella novicida
[3] = test system: F. novicida
[4] = test system: F. novicida; type: cell-based, Francisella novicida; remark: listed apart in the source
[5] = test system: N. meningitidis; experiment: Bacterial viability assay (CFU or O.D.); type: cell-based, Neisseria meningitidis; conditions: 6 h
[6] = test system: F. novicida; type: cell-based, Francisella novicida; remark: listed apart in the source
[7] = test system: E. coli; experiment: Peptide and protein binding assay with SYTOX staining; type: cell-based, Escherichia coli
[8] = test system: F. novicida; type: binding, Francisella novicida
[9] = test system: N. meningitidis; experiment: Peptide and protein binding assay with SYTOX staining; type: cell-based, Neisseria meningitidis; conditions: for Localization to and killing of N. meningitidis (SYTOX): 10 µg/mL FITC-peptide, 1 h or 6 h
[10] = test system: human embryonic kidney cells HEK293; experiment: Cytotoxicity (SYTOX incorporation, LDH release); conditions: 10 µg/ml; IncuCyte live imaging; LDH after 24 h
[11] = test system: African green monkey kidney cells Vero; experiment: Cytotoxicity (SYTOX incorporation, LDH release); conditions: 10 µg/ml; IncuCyte live imaging; LDH after 24 h
[12] = test system: human intestinal epithelial cells HT29; experiment: Cytotoxicity (SYTOX incorporation, LDH release); conditions: 10 µg/ml; IncuCyte live imaging; LDH after 24 h
[13] = test system: primary mouse BMDMs; experiment: Cytotoxicity (SYTOX incorporation, LDH release); conditions: 10 µg/ml; IncuCyte live imaging; LDH after 24 h
[14] = test system: isogenic lpxA mutant of N. meningitidis, which lacks LOS; experiment: Bacterial viability assay (O.D.); type: cell-based, Neisseria meningitidis; conditions: mGBP1 protein at 0.4, 4 or 40 µM, 6 h; mutant lacking LOS

| Molecule | SYTOX positive F. novicida, flow cytometry plot [2] | Viability of F. novicida (percentage of CFU in relation to solvent control) [3] | Cytotoxicity, SYTOX incorporation or LDH release, HEK293 [10] | Cytotoxicity, SYTOX incorporation or LDH release, Vero [11] | Cytotoxicity, SYTOX incorporation or LDH release, HT29 [12] | Cytotoxicity, SYTOX incorporation or LDH release, BMDMs [13] | further results |
| --- | --- | --- | --- | --- | --- | --- | --- |
| RRWVRRVRRWVRRVVRVVRRWVRR [WLBU2, reference compound] | 90.7% | exhibited, in a dose-dependent manner, antibacterial activity | – | – | – | – | Viability of E. coli (percentage of CFU in relation to solvent control) ([1]; peptide at 0.1, 1 or 10 µg/ml): led to death of the bacteria; Uptake of SYTOX by F. novicida, quantification by flow cytometry [2]: induced a significant uptake of SYTOX; Morphology of F. novicida by SEM and TEM [4]: apoptosis-like blebbing and apoptosis-like bodies |
| VVVVAIVGFYHTGKSYLMNKLAGKQKGFSL [GBP1^38–67] | – | little or no antimicrobial activity | – | – | – | – | Viability of N. meningitidis (percentage of CFU in relation to solvent control) ([5]; peptide at 10 µg/ml): little or no antimicrobial activity |
| {FITC}-[Ahx]LDILSAIQNPVVVVAIVGFYHTGKSYLMNKLAGKQKGFSL [FITC-GBP1^28–67] | – | – | – | – | – | – | Localization to bacteria and uptake of SYTOX, F. novicida [6]: localized to and induced uptake of SYTOX in F. novicida; Localization to bacteria and uptake of SYTOX, E. coli ([7]; 10 µg/mL FITC-peptide, 1 h or 6 h): this did not occur with E. coli; Binding to F. novicida exposed to NaCl, saponin or sarcosyl before addition of peptide [8]: did not impair the binding; FITC signal remaining on F. novicida already bound to peptide after exposure to NaCl, saponin or sarcosyl [8]: loss of FITC signal; Localization to and killing of N. meningitidis (SYTOX) [9]: localized to and killed N. meningitidis |
| TFYKPGGYYLFLQRKQELEKKYIQTPGKG [GBP1^424–452] | 11.4% | only GBP1^28–67 and WLBU2 exhibited | None of the peptides exhibited cytotoxicity | None of the peptides exhibited cytotoxicity | None of the peptides exhibited cytotoxicity | None of the peptides exhibited cytotoxicity | – |
| FYHTGKSYLMNKLAGKQKGFSL [GBP1^46–67] | – | little or no antimicrobial activity | – | – | – | – | Viability of N. meningitidis (percentage of CFU in relation to solvent control) ([5]; peptide at 10 µg/ml): little or no antimicrobial activity |
| GTDENTKKFNMPRLCIRKFFPKRKCFIFDR [GBP1^209–238] | 9.2% | only GBP1^28–67 and WLBU2 exhibited | None of the peptides exhibited cytotoxicity | None of the peptides exhibited cytotoxicity | None of the peptides exhibited cytotoxicity | None of the peptides exhibited cytotoxicity | – |
| IRILEQIAQPLVVVAIVGLYRTGKSYLMNRLAGRNHGFSL [GBP3^22–61] | – | bacterial killing in a dose-dependent manner | – | – | – | – | Morphology of F. novicida by SEM and TEM [4]: bacterial membrane damage and bacteriolysis of F. novicida |
| LLKQGFQNESLQLRQEIEKI [GBP1^558–577] | 4.7% | only GBP1^28–67 and WLBU2 exhibited | None of the peptides exhibited cytotoxicity | None of the peptides exhibited cytotoxicity | None of the peptides exhibited cytotoxicity | None of the peptides exhibited cytotoxicity | – |
| LDILSAIQNPV [GBP1^28–38] | – | killed F. novicida and N. meningitidis similar to that observed for GBP1^28–67 | – | – | – | – | Viability of E. coli (percentage of CFU in relation to solvent control) ([1]; peptide at 10 µg/ml): unable to kill E. coli; Viability of N. meningitidis (percentage of CFU in relation to solvent control) ([5]; peptide at 10 µg/ml): killed F. novicida and N. meningitidis similar to that observed for GBP1^28–67 |
| {FITC}-[Ahx]KLIKLLDRLASRSVS [FITC-control peptide, reference compound] | – | – | – | – | – | – | Localization to and killing of N. meningitidis (SYTOX) [9]: this did not occur |
| LDILSAIQNPVVVVAIVGFYHTGKSYLMNKLAGKQKGFSL [GBP1^28–67] | – | – | None of the peptides exhibited cytotoxicity | None of the peptides exhibited cytotoxicity | None of the peptides exhibited cytotoxicity | None of the peptides exhibited cytotoxicity | half maximal inhibitory concentration (IC50), viability of F. novicida ([3]; 6 h): 5.04 µg/mL |
| mGBP1 (protein, UniProt Q01514 1-589, looked up) Guanylate-binding protein 1: MASEIHMSEPMCLIENTEAQLVINQEALRILSAITQPVVVVAIVGLYRTGKSYLMNKLAGKRTGFSLGSTVQSHTKGIWMWCVPHPKKAGQTLVLLDTEGLEDVEKGDNQNDCWIFALAVLLSSTFIYNSIGTINQQAMDQLHYVTELTDLIKSKSSPDQSDVDNSANFVGFFPIFVWTLRDFSLDLEFDGESITPDEYLETSLALRKGTDENTKKFNMPRLCIRKFFPKRKCFIFDRPGDRKQLSKLEWIQEDQLNKEFVEQVAEFTSYIFSYSGVKTLSGGITVNGPRLKSLVQTYVSAICSGELPCMENAVLTLAQIENSAAVQKAITYYEEQMNQKIHMPTETLQELLDLHRTCEREAIEVFMKNSFKDVDQKFQEELGAQLEAKRDAFVKKNMDMSSAHCSDLLEGLFAHLEEEVKQGTFYKPGGYYLFLQRKQELEKKYIQTPGKGLQAEVMLRKYFESKEDLADTLLKMDQSLTEKEKQIEMERIKAEAAEAANRALAEMQKKHEMLMEQKEQSYQEHMKQLTEKMEQERKELMAEQQRIISLKLQEQERLLKQGFQNESLQLRQEIEKIKNMPPPRSCTIL | – | killed F. novicida in a dose-dependent manner | – | – | – | – | Localization to bacteria and uptake of SYTOX, F. novicida [6]: localized to and induced uptake of SYTOX in F. novicida; Localization to bacteria and uptake of SYTOX, E. coli ([7]; 40 µM mGBP1 protein, 6 h): this did not occur with E. coli; Viability of N. meningitidis ΔlpxA mutant (percentage of O.D. in relation to solvent control) [14]: can kill both WT and ΔlpxA mutant strains; Morphology of F. novicida by SEM [4]: disruption of the membrane integrity, membrane rupture, and expulsion of intracellular content; Localization to bacteria and uptake of SYTOX, N. meningitidis ([9]; 40 µM mGBP1, 6 h): localized to N. meningitidis, resulting in the uptake of SYTOX; Viability of N. meningitidis (percentage of CFU in relation to solvent control) ([5]; mGBP1 protein at 0.4, 4 or 40 µM): killed N. meningitis in a dose-dependent manner; Viability of WT N. meningitidis (percentage of O.D. in relation to solvent control) ([5]; mGBP1 protein at 0.4, 4 or 40 µM, WT strain): can kill both WT and ΔlpxA mutant strains |
